# Measured values reported in paper PMC7316778 (Nature Communications, 2020).
# Values joined by “and” are separate entries in the source; they are usually repeats but may differ in a detail not shown here. Equal entries are not always repeated. Where two headings read alike, the source gives them in different places.
# How the values were obtained:
# [1] = test system: FES^S700C HL-60 neutrophils; assay: Phagocytosis assay with GFP-expressing E. coli; assay type: cell-based, human; conditions: for Phagocytic index / GFP-positive cells (%) / Mean GFP intensity (RFU): listed as WEL028; for GFP-positive cells (%): Sup. Fig. 15a; for Mean GFP intensity (RFU): Sup. Fig. 15b
# Experimental: (§1) HL-60 cells were differentiated to neutrophils as described above. Cells were counted and centrifuged (200g, 5 min), followed by resuspension in growth medium without antibiotics. Cells were incubated with vehicle or inhibitor (from 1000x concentrated stocks in DMSO) for 1 h at 37 °C prior to infection (1×10^6 cells in 900 µL in 12-well plate). Meanwhile, E. coli B834(DE3) constitutively expressing GFP^A206K were grown in LB medium to an OD600 of 0.4–1.0, after which bacteria were centrifuged (2000g, 5 min), washed and resuspended in PBS to appropriate density. Neutrophils were infected by addition of bacteria at multiplicity of infection (MOI) of 30 unless stated otherwise. Cells were then incubated for 1 h at 37 °C unless stated otherwise, after which cells were resuspended and transferred to Eppendorf tubes, washed in FACS buffer (1 mL, 500g, 3 min) and fixed in 1% PFA in PBS (15 min, 4 °C, in the dark). Samples were further processed as described above.
# (§2) Events (generally 20,000 per condition) were gated by forward and side scatter (cells), side scatter area (singlets) and the percentage of GFP-positive cells and GFP mean fluorescence intensity (MFI) were determined based on background fluorescence for non-infected cells. The GREEN-B channel (525/30 filter) was used to detect GFP.
# [2] = test system: WT HL-60 neutrophils; assay: Phagocytosis assay with GFP-expressing E. coli; assay type: cell-based, human; conditions: Figure 7e, replicates, listed as WEL028
# Experimental: as §1, §2
# [3] = test system: panel of 380 wild-type, mammalian kinases; assay: SelectScreen selectivity profiling, whole panel; assay type: biochemical
# Experimental: Supplementary Figure 4. Single-point selectivity screen of WEL028 on a panel of 380 kinases. All data were obtained from SelectScreen™ selectivity profiling service. Assays were performed at 1 μM WEL028 with 1 h preincubation. The ATP concentration was equal to the kinase K M, except for those indicated († = LanthaScreen technology, no ATP; * = 100 µM ATP; ** = 10 µM ATP). Values represent mean percentage inhibition compared to vehicle -treated control (n = 2). […]
# inhibition from minimum (0%, white) to maximum (100%, red). Source data are provided as a Source
# [4] = target: ACVRL1 (ALK1) (Homo sapiens, UniProt P37023); assay: SelectScreen kinase assay
# Chain of ACVRL1 (ALK1) (P37023 22-503): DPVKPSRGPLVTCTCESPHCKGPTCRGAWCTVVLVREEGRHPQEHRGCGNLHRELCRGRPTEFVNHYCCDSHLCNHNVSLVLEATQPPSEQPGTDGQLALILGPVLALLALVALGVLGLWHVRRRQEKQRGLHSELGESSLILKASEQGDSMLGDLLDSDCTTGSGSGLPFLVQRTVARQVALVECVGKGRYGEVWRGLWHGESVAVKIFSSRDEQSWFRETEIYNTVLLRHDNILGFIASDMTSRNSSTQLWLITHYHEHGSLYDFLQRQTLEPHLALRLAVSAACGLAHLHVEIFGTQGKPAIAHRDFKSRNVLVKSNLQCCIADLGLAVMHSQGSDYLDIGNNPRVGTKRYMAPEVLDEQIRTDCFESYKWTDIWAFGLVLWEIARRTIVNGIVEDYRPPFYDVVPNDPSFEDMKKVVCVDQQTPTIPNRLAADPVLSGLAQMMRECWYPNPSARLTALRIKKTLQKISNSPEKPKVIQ
# Experimental: (§3) Selectivity profiling assays were performed by the Invitrogen SelectScreen™ Services. […] The concentration of ATP was selected to be equal to the KM, unless indicated otherwise.
# [5] = target: AXL (Homo sapiens, UniProt P30530); assay: SelectScreen kinase assay; conditions: for Inhibition at 1 µM (%): AXL, ZLYTE, ATP Km app
# Experimental: as §3
# [6] = target: CAMK2D (CaMKII delta) (Homo sapiens, UniProt Q13557); assay: SelectScreen kinase assay
# Experimental: as §3
# [7] = target: CLK3 (Homo sapiens, UniProt P49761); assay: SelectScreen kinase assay
# Experimental: as §3
# [8] = target: CSF1R (FMS) (Homo sapiens, UniProt P07333); assay: SelectScreen kinase assay
# Chain of CSF1R (FMS) (P07333 20-972): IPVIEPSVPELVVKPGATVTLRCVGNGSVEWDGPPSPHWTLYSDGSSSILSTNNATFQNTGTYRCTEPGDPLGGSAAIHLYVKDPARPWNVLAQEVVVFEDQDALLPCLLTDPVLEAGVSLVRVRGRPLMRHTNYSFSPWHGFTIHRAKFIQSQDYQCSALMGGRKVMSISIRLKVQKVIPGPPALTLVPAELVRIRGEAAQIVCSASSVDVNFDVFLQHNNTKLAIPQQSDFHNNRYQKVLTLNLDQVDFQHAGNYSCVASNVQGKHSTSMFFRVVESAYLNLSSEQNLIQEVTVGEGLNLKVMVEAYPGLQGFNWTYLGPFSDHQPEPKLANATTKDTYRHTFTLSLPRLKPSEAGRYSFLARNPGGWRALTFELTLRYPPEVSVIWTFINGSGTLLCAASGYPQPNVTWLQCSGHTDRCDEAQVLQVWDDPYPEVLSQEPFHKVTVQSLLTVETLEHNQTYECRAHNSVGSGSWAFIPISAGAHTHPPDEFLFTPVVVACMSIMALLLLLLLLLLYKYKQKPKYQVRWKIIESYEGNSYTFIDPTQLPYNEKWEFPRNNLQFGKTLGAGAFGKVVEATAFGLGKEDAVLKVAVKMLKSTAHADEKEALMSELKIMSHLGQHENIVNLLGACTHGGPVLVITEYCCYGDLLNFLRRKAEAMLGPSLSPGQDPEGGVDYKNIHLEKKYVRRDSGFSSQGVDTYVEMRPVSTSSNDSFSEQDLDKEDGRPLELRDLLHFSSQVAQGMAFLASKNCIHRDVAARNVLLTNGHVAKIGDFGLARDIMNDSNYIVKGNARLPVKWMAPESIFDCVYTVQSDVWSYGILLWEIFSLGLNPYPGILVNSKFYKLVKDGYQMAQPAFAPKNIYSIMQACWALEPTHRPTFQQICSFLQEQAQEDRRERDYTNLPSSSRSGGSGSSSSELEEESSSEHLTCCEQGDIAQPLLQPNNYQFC
# Experimental: as §3
# [9] = target: FGFR1 (Homo sapiens, UniProt P11362); assay: SelectScreen kinase assay
# Chain of FGFR1 (P11362 22-822): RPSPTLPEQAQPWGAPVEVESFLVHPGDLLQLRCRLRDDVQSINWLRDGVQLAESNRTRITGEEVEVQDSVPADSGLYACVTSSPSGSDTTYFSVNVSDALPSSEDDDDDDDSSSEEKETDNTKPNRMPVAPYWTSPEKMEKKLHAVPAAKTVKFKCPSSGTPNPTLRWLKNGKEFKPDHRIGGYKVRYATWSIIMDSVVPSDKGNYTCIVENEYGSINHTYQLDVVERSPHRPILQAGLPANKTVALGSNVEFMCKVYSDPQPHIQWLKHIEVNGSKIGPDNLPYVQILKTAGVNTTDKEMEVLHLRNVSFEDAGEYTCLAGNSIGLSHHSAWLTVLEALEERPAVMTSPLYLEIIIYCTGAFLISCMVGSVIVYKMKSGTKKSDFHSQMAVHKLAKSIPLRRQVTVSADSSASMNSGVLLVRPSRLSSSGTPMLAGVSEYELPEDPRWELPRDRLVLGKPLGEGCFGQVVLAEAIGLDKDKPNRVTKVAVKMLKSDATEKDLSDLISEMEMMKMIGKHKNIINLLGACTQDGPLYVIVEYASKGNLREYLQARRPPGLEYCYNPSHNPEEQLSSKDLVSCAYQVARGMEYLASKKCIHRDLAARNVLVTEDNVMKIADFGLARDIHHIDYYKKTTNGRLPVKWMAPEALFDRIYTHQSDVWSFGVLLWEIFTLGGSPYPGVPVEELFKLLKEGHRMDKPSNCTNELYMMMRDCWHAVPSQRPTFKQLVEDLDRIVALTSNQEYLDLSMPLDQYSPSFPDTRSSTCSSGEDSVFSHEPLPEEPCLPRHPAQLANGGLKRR
# Experimental: as §3
# [10] = target: LTK (TYK1) (Homo sapiens, UniProt P29376); assay: SelectScreen kinase assay
# Chain of LTK (TYK1) (P29376 17-864): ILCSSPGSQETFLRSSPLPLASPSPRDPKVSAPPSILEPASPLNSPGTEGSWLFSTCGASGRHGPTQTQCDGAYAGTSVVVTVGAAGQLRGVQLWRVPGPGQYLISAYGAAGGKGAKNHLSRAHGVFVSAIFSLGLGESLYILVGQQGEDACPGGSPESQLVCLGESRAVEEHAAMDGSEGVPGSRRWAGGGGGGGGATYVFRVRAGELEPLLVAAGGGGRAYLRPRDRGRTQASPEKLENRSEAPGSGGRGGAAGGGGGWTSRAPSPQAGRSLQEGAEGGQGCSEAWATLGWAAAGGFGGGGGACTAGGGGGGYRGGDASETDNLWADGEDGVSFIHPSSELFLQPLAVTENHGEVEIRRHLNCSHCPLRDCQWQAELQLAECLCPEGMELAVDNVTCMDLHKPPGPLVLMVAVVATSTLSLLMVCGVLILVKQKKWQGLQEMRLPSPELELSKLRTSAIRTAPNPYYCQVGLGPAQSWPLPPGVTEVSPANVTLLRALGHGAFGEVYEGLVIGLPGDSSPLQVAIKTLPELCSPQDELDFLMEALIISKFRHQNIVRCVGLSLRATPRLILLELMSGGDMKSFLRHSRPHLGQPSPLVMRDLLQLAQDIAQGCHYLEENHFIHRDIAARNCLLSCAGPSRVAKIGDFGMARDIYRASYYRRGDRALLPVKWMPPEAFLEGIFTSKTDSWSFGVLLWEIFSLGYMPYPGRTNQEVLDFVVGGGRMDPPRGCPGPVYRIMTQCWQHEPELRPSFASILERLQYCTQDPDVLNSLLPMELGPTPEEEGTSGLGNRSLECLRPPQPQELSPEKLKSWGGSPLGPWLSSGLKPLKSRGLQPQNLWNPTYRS
# Experimental: as §3
# [11] = target: MET (cMet) (Homo sapiens, UniProt P08581); assay: SelectScreen kinase assay
# Chain of MET (cMet) (P08581 25-1390): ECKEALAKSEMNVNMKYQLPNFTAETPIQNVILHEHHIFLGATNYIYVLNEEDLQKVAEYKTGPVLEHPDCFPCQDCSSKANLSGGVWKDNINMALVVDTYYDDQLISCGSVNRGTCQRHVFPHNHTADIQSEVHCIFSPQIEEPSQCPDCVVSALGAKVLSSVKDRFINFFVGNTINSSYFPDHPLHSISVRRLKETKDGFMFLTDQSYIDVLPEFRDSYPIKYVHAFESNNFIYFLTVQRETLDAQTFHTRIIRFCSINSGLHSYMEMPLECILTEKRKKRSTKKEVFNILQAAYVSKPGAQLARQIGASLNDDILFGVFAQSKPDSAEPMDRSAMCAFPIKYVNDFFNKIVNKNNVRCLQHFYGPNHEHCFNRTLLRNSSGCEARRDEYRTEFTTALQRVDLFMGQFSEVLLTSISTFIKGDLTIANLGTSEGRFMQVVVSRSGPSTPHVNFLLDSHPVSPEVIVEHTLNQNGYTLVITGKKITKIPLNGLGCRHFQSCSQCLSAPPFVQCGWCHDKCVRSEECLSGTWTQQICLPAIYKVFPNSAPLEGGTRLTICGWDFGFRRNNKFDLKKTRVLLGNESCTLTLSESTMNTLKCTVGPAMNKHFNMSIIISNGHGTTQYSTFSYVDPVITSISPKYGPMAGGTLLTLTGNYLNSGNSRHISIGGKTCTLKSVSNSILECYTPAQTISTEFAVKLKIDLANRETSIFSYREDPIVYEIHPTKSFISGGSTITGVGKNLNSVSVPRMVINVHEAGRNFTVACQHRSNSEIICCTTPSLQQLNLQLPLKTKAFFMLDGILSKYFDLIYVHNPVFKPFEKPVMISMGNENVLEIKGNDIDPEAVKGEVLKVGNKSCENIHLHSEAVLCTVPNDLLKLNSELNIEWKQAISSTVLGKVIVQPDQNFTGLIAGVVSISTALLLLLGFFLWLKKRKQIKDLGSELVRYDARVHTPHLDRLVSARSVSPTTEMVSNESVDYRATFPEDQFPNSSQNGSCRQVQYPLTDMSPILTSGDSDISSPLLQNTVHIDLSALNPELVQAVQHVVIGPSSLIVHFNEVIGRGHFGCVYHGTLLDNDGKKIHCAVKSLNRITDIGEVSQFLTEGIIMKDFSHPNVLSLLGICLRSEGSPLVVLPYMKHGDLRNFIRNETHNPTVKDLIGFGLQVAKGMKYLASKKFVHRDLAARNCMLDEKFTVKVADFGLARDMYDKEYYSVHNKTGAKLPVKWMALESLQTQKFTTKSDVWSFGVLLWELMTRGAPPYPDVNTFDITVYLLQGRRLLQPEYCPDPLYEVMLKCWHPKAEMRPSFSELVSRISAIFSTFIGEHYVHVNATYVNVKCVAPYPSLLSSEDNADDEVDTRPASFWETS
# Experimental: as §3
# [12] = target: T1, NUAK2 (Homo sapiens, UniProt Q9H093); assay: SelectScreen kinase assay
# T1 sequence (Q9H093 1-628): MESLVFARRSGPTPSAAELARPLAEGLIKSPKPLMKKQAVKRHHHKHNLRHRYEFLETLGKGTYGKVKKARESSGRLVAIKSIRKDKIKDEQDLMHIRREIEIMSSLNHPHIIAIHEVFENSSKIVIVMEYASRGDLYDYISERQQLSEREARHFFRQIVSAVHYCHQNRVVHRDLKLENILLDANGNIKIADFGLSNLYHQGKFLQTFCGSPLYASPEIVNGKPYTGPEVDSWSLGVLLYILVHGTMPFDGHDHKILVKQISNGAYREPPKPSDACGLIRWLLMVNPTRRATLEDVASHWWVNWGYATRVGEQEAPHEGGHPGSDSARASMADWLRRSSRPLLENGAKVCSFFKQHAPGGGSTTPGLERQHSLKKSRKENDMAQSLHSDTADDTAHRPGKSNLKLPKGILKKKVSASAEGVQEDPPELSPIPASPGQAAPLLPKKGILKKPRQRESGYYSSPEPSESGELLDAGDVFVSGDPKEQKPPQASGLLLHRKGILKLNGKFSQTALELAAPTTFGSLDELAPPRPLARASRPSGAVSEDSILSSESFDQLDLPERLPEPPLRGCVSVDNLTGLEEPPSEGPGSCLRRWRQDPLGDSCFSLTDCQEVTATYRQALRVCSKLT
# Experimental: as §3
# [13] = target: PRKACG (PRKAC gamma) (Homo sapiens, UniProt P22612); assay: SelectScreen kinase assay; conditions: for Inhibition at 1 µM (%): PRKACG (PRKAC gamma), LanthaScreen Binding
# Chain of PRKACG (PRKAC gamma) (P22612 whole entry): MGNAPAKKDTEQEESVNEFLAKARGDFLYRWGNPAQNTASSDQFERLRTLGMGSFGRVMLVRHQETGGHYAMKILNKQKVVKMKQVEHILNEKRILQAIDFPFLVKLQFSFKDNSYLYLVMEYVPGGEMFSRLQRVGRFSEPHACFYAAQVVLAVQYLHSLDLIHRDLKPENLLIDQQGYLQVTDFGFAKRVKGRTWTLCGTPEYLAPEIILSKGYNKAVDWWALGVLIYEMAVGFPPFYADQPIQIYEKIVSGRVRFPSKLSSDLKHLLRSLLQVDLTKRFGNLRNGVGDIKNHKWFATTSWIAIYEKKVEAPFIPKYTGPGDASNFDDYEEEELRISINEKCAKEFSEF
# Experimental: as §3
# [14] = target: ZAP70 (Homo sapiens, UniProt P43403); assay: SelectScreen kinase assay; conditions: 1 h, 1 μM WEL028, 1 h preincubation
# Experimental: as §3
# [15] = 1 h, 1 μM WEL028, 1 h preincubation
structure (smiles),measurement,setting,value
C#CCOc1ccc(Nc2ncc(Cl)c(Nc3ccccc3NC(=O)C=C)n2)c(OC)c1 [Compound 6],Reduction of phagocytic index,"[1]; 100 nM, 1 h, E. coli MOI 30, 1 h",30–50%
same,Phagocytic index,"[1]; Figure 7e, S700C, replicates",145.478 and 171.315 and 187.921 and 222.417 and 183.286
same,Phagocytic index,"[1]; Figure 7i, replicates",197.442 and 178.118 and 223.309 and 208.369 and 195.015
same,Phagocytic index,"[1]; MOI 0, Sup. Fig. 15d",11.3713 and 7.7474 and 12.7423
same,Phagocytic index,"[1]; MOI 5, Sup. Fig. 15d",256.754 and 179.658 and 258.748
same,Phagocytic index,"[1]; MOI 10, Sup. Fig. 15d",353.426 and 268.67 and 311.603
same,Phagocytic index,"[1]; MOI 30, Sup. Fig. 15d",419.958 and 366.26 and 418.025
same,Phagocytic index,"[1]; MOI 50, Sup. Fig. 15d",485.281 and 414.473 and 534.485
same,GFP-positive cells (%),[1]; infection time 0 min,18.616% and 19.116% and 23.8538%
same,Mean GFP intensity (RFU),[1]; infection time 0 min,251.299 RFU and 272.27 RFU and 265.594 RFU
same,Phagocytic index,"[1]; infection time 0 min, Sup. Fig. 15c",46.7819 and 52.047 and 63.3542
same,GFP-positive cells (%),[1]; infection time 15 min,35.6181% and 40.0295% and 44.0403%
same,Mean GFP intensity (RFU),[1]; infection time 15 min,355.136 RFU and 341.544 RFU and 336.989 RFU
same,Phagocytic index,"[1]; infection time 15 min, Sup. Fig. 15c",126.493 and 136.719 and 148.411
same,GFP-positive cells (%),[1]; infection time 30 min,53.551% and 63.4482% and 62.11%
same,Mean GFP intensity (RFU),[1]; infection time 30 min,496.403 RFU and 400.363 RFU and 431.37 RFU
same,Phagocytic index,"[1]; infection time 30 min, Sup. Fig. 15c",265.829 and 254.023 and 267.924
same,GFP-positive cells (%),[1]; infection time 60 min,64.7116% and 74.5174% and 69.3761%
same,Mean GFP intensity (RFU),[1]; infection time 60 min,571.855 RFU and 482.086 RFU and 578.862 RFU
same,Phagocytic index,"[1]; infection time 60 min, Sup. Fig. 15c",370.057 and 359.238 and 401.592
same,Phagocytic index,[2],160.957 and 207.068 and 250.511 and 251.311 and 284.865
same,Selectivity window against the residual 354 kinases,[3]; 1 μM screen vs FES^S700C,> 100 fold
same,Number of kinases with >50% inhibition,"[3]; out of 380 tested kinases, 1 μM, 1 h preincubation",26
same,inhibition at 1 µM,[4]; [15],6%
same,Inhibition at 1 µM (%),"[4]; ACVRL1 (ALK1), 1 µM, LanthaScreen Binding",12%
same,inhibition at 1 µM,[5]; [15],-2%
same,Inhibition at 1 µM (%),[5],3%
same,Inhibition at 1 µM (%),"[5]; listed as WEL028, 1 µM",-6%
same,inhibition at 1 µM,[6]; [15],8%
same,Inhibition at 1 µM (%),"[6]; CAMK2D (CaMKII delta), 1 µM, ZLYTE, ATP Km app",15%
same,inhibition at 1 µM,[7]; [15],11%
same,Inhibition at 1 µM (%),"[7]; CLK3, 1 µM, ZLYTE, ATP Km app",23%
same,inhibition at 1 µM,[8]; [15],11%
same,Inhibition at 1 µM (%),"[8]; CSF1R (FMS), 1 µM, ZLYTE, ATP Km app, listed as WEL028, 1 µM",8%
same,inhibition at 1 µM,"[8]; read-out: Inhibition at 1 µM (%), CSF1R (FMS), 1 µM, ZLYTE, ATP Km app",13%
same,inhibition at 1 µM,[9]; [15],3%
same,Inhibition at 1 µM (%),"[9]; FGFR1, 1 µM, ZLYTE, ATP Km app, listed as WEL028, 1 µM",5% and 1%
same,inhibition at 1 µM,[10]; [15],43%
same,Inhibition at 1 µM (%),"[10]; LTK (TYK1), 1 µM, ZLYTE, ATP Km app, listed as WEL028, 1 µM",37%
same,inhibition at 1 µM,"[10]; read-out: Inhibition at 1 µM (%), LTK (TYK1), 1 µM, ZLYTE, ATP Km app",48%
same,Inhibition (%),"[11]; 1 μM WEL028, 1 h preincubation",-4%
same,Inhibition at 1 µM (%),"[11]; MET (cMet), 1 µM, ZLYTE, ATP Km app, listed as WEL028, 1 µM",0% and -9%
same,Inhibition (%),"[12]; 1 μM WEL028, 1 h preincubation",24%
same,Inhibition at 1 µM (%),"[12]; NUAK2, 1 µM, LanthaScreen Binding, listed as WEL028, 1 µM",30%
same,inhibition at 1 µM,"[12]; read-out: Inhibition at 1 µM (%), NUAK2, 1 µM, LanthaScreen Binding",18%
same,inhibition at 1 µM,[13]; [15],3%
same,Inhibition at 1 µM (%),[13],2%
same,Inhibition at 1 µM (%),"[13]; listed as WEL028, 1 µM",5%
same,inhibition at 1 µM,[14],2%
